Reference: PubChem BioAssay (NCI)
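Following 48 hours of exposure in 96-well plates, responses at five concentrations were used to interpolate endpoints linearly. GI50 is the concentration that inhibits growth by half. The concentration for full growth arrest is given as TGI.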

Tests used:
Assay in all cases: NCI tumour cell line growth inhibition, 48 h
ACHN renal = tested on: ACHN renal
HCT-15 colon = tested on: HCT-15 colon
HOP-92 NSCLC = tested on: HOP-92 NSCLC
LOX IMVI melanoma = tested on: LOX IMVI melanoma
M14 melanoma = tested on: M14 melanoma
NCI-H522 lung = tested on: NCI-H522 lung
SF-268 CNS = tested on: SF-268 CNS
SF-539 CNS = tested on: SF-539 CNS
SN12C renal = tested on: SN12C renal
UACC-257 melanoma = tested on: UACC-257 melanoma

Compound	GI50 (ACHN renal)	TGI (ACHN renal)	GI50 (HCT-15 colon)	TGI (HCT-15 colon)	GI50 (HOP-92 NSCLC)	TGI (HOP-92 NSCLC)	GI50 (LOX IMVI melanoma)	TGI (LOX IMVI melanoma)	GI50 (M14 melanoma)	TGI (M14 melanoma)	GI50 (NCI-H522 lung)	TGI (NCI-H522 lung)	GI50 (SF-268 CNS)	TGI (SF-268 CNS)	GI50 (SF-539 CNS)	TGI (SF-539 CNS)	GI50 (SN12C renal)	TGI (SN12C renal)	GI50 (UACC-257 melanoma)	TGI (UACC-257 melanoma)
Cc1ccc(Nc2ccnc(Nc3cccc(C(N)=O)c3)n2)cc1O	4.32 µM	> 25 µM	7.16 µM	> 25 µM	0.891 µM	8.25 µM	3.02 µM	7.22 µM	5.87 µM	> 25 µM	3.22 µM	> 15.1 µM	3.84 µM	> 17.7 µM	3.46 µM	11.1 µM	3.7 µM	> 25 µM	15.5 µM	> 25 µM
CC(C)=CCC[C@](C)(O)[C@H]1CC[C@]2(C)[C@@H]1CC[C@@H]1[C@@]3(C)CC[C@H](OC(=O)CCC(=O)O)C(C)(C)[C@@H]3CC[C@]12C	28.3 µM	> 100 µM	19.5 µM	48.6 µM	14.5 µM	35.9 µM	16.6 µM	30.7 µM	73.6 µM	> 100 µM	26.2 µM	> 100 µM	29.9 µM	> 100 µM	19.7 µM	57.8 µM	25.5 µM	78.1 µM	36.9 µM	> 100 µM
COCCOC(=O)CCn1cc(F)c(=O)[nH]c1=O	8.67 µg/mL	> 150 µg/mL	6.72 µg/mL	> 150 µg/mL	77.6 µg/mL	> 150 µg/mL	10.4 µg/mL	> 150 µg/mL	8.38 µg/mL	> 150 µg/mL	131 µg/mL	> 150 µg/mL	102 µg/mL	> 150 µg/mL	7.42 µg/mL	> 150 µg/mL	7.8 µg/mL	> 150 µg/mL	26.5 µg/mL	> 150 µg/mL
CC(Cl)CC(=O)Nc1ccc2c(c1)oc(=O)c1cc(NC(=O)CC(C)Cl)ccc12 (stereo not given)	12.2 µM	31.8 µM	13.2 µM	45.8 µM	2.09 µM	10.7 µM	4.46 µM	21.9 µM	12.4 µM	37.5 µM	15.2 µM	36.8 µM	10.1 µM	33.3 µM	14.4 µM	33.1 µM	16.4 µM	32 µM	23.2 µM	76.2 µM
CCNC1=CC(=O)c2ncccc2C1=O	5.9 µM	19.6 µM	0.999 µM	3.22 µM	10.3 µM	25.3 µM	1 µM	3.22 µM	1.11 µM	2.46 µM	1.79 µM	4.23 µM	3.13 µM	17.3 µM	1.89 µM	3.76 µM	1.4 µM	2.78 µM	1.42 µM	3 µM
Cc1ccc(C)c(NC(=O)CCc2n[nH]c(=S)o2)c1		> 100 µM		> 100 µM		> 100 µM		> 100 µM		> 100 µM		> 100 µM		> 100 µM		> 100 µM		> 100 µM		> 100 µM
COc1cc(C(=O)c2c(-c3ccccc3)oc3ccccc23)cc(OC)c1O	4.49 µM	41.1 µM	0.667 µM	15.5 µM	0.595 µM	12.7 µM	4.33 µM	21.6 µM	0.58 µM	10.7 µM	0.773 µM	19.6 µM	3.4 µM	18.6 µM	1.64 µM	5.63 µM	5.23 µM	26.3 µM	16 µM	64.3 µM
COc1ccc2c3c([nH]c2c1)[C@H]1C[C@H]2[C@H](C[C@@H](O)[C@H](OC)[C@H]2C(=O)O)CN1CC3		> 100 µM		> 100 µM		> 100 µM		> 100 µM		> 100 µM		> 100 µM		> 100 µM		> 100 µM		> 100 µM		> 100 µM
COS(=O)CCOC(=O)c1ccccc1SSc1ccccc1C(=O)OCCS(=O)OC (stereo not given)		> 100 µM		85.9 µM		74.2 µM		61.6 µM		57.8 µM		18.6 µM		> 100 µM		65.6 µM		85.9 µM		38.8 µM
c1ccc(CN(Cc2ccccn2)Cn2cccn2)nc1		> 100 µM		78.9 µM		> 100 µM		> 100 µM		> 100 µM		> 100 µM		> 100 µM		> 100 µM		> 100 µM		> 100 µM
N#CC(/C(=N\NC(N)=S)C(=O)NC1C2CC3CC(C2)CC1C3)c1ccc(Cl)cc1 (stereo not given)		> 100 µM		> 100 µM		> 100 µM		> 100 µM		> 100 µM		> 100 µM		> 100 µM		> 100 µM		> 100 µM		> 100 µM
Nc1ccccc1C#Cc1ccccc1C#CCCCCO	24.7 µM	59 µM	19.8 µM	42.5 µM	28.1 µM	80.4 µM	17 µM	32.6 µM	17.1 µM	36.2 µM	14.3 µM	31.2 µM	33.9 µM	> 100 µM	19 µM	42.8 µM	2.8 µM	9.49 µM	19.7 µM	50.9 µM
C/C(=N\N=C(N)N)c1sc(-c2nc(C)c(/C(C)=N/N=C(N)N)s2)nc1C		> 100 µM		> 66.9 µM		> 100 µM		> 58.3 µM		> 100 µM		> 77 µM		> 100 µM		> 100 µM		> 100 µM		> 100 µM
COCCOCCOCCOCCOc1ccc2c(c1)C(=O)c1nc3ncccc3c(=O)n1-2	2.64 µM	8.19 µM	1.21 µM	2.6 µM	8.23 µM	29.5 µM	0.39 µM	1.62 µM	0.312 µM	1.44 µM	1.67 µM	3.3 µM	1.54 µM	5.17 µM	0.551 µM	1.71 µM	1.38 µM	2.91 µM	0.763 µM	2.38 µM
C1CCN2CC34CC(CC5CCCN(C6CCCC3N6)C54)C2C1 (stereo not given)		> 100 µM		> 100 µM		> 100 µM		> 100 µM		> 100 µM		> 100 µM		> 100 µM		> 100 µM		> 100 µM		> 100 µM
